Laboratory results: ChEMBL document CHEMBL1147757, “Design and preparation of 2-benzamido-pyrimidines as inhibitors of IKK” (Bioorg Med Chem Lett, 2006)

Key:
[1] = target: T1, Inhibitor of nuclear factor kappa-B kinase subunit alpha (Homo sapiens, UniProt O15111); experiment: Inhibitory activity against IKK1
T1 sequence (O15111 whole entry): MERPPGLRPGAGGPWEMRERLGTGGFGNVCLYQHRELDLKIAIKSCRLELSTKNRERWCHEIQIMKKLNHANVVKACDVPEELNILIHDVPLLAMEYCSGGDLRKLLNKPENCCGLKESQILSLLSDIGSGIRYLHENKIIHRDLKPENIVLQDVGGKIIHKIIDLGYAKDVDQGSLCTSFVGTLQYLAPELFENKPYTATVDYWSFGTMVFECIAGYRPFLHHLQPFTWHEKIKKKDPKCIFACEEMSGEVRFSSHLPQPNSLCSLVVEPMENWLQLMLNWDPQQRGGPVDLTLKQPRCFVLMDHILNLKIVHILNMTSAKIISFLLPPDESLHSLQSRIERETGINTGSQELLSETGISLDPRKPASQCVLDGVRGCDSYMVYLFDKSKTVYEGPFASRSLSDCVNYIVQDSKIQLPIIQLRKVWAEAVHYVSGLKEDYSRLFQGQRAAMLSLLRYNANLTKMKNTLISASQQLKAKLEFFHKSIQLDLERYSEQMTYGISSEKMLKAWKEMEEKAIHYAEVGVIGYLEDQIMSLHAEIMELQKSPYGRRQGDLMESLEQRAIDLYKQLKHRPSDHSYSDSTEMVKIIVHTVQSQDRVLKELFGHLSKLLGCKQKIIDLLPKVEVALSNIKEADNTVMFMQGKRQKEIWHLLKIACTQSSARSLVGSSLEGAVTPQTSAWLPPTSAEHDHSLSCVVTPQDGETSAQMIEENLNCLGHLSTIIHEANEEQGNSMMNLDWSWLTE

[2] = target: T2, Inhibitor of NF-kappa-B kinase (IKK) (Homo sapiens, UniProt O14920+O15111+Q9Y6K9); experiment: Inhibitory activity against IKK complex isolated from HeLa cells; assay type: cell-based
T2 sequence (Q9Y6K9 whole entry, one chain of several): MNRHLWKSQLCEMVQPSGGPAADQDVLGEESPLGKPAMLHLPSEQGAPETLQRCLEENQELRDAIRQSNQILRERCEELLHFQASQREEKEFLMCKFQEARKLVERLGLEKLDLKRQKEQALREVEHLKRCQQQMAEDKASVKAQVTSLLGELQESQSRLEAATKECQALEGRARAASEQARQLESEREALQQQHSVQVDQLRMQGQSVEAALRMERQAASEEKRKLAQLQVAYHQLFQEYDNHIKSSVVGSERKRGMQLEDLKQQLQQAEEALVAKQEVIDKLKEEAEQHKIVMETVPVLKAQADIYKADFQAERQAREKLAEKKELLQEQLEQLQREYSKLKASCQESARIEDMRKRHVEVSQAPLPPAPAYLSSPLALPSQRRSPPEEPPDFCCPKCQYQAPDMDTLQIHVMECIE

[3] = target: T3, Inhibitor of nuclear factor kappa-B kinase subunit beta (Homo sapiens, UniProt O14920); experiment: Inhibitory activity against IKK2
T3 sequence (O14920 whole entry): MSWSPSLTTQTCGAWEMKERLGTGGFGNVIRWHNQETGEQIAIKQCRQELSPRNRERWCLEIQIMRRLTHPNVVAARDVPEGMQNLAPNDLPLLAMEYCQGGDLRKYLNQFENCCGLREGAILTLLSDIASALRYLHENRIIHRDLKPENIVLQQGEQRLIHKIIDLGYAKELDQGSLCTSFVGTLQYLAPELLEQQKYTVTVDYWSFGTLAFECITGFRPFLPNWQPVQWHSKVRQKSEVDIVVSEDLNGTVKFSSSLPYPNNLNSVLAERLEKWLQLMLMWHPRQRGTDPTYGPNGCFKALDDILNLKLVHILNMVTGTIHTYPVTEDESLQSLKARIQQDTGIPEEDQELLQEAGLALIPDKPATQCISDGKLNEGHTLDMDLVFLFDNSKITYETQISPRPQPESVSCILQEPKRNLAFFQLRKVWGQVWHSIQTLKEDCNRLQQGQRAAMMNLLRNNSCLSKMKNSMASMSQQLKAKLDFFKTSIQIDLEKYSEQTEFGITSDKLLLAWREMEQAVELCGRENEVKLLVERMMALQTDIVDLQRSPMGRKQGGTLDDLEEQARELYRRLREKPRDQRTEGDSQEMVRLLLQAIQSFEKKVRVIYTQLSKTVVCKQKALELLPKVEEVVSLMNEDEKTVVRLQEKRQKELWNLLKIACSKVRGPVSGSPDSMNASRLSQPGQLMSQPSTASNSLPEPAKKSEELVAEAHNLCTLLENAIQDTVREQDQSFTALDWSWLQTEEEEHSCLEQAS

[4] = target: T2, Inhibitor of NF-kappa-B kinase (IKK); experiment: Inhibition of TNF-alpha-stimulated expression of E-selectin in HUVEC cells; assay type: functional, cell-based
Rattus norvegicus [5] = experiment: Inhibition of LPS-induced TNFalpha release into plasma in rat at 30 mg/kg, sc; assay type: functional; conditions: route subcutaneous
[6] = target: T2, Inhibitor of NF-kappa-B kinase (IKK); experiment: Inhibition of TNF-alpha-stimulated expression of ICAM1 in HUVEC cells; assay type: functional, cell-based
[7] = target: T2, Inhibitor of NF-kappa-B kinase (IKK); experiment: Inhibition of TNF-alpha-stimulated expression of VCAM1 in HUVEC cells; assay type: functional, cell-based
Rattus norvegicus [8] = experiment: Inhibition of LPS-induced TNFalpha release into plasma in rat at 30 mg/kg, po; assay type: functional
[9] = Inhibition of IFN-gamma-stimulated expression of beta-2 microglobulin; assay type: functional
[10] = target: T2, Inhibitor of NF-kappa-B kinase (IKK); experiment: Inhibition of LPS-induced TNFalpha release from human PBMC; assay type: functional
[11] = Inhibition of IFN-gamma-stimulated expression of HLA-DR; assay type: functional
Mus musculus = experiment: Inhibition of thioglycollate-induced polymorphonuclear neutrophil release in mouse peritoneum at 10 mg/kg, sc; assay type: functional; conditions: route subcutaneous
[12] = target: T2, Inhibitor of NF-kappa-B kinase (IKK); experiment: Inhibition of TNF-alpha-stimulated IkappaBalpha degradation; assay type: functional

Row | Structure (SMILES) | IC50 [1] [nM] | IC50 [2] [nM] | IC50 [3] [nM] | IC50 [4] [nM] | inhibition in vivo at 30 mg/kg (Rattus norvegicus [5]) [%] | IC50 [6] [nM] | IC50 [7] [nM] | inhibition in vivo at 30 mg/kg (Rattus norvegicus [8]) [%] | IC50 [9] [nM] | IC50 [10] [nM] | IC50 [11] [nM] | inhibition in vivo at 10 mg/kg (Mus musculus) [%] | IC50 [12] [nM]
1 | CC(C)(N)CCc1ccc(-c2ccnc(Nc3ccc(C(=O)N4CCC(N5CCCC5)CC4)cc3)n2)s1 | 30 | 40 | 40 |  |  |  |  |  |  |  |  |  | 
2 | O=C(c1ccc(Nc2nccc(-c3cc4ccccc4s3)n2)cc1Cl)N1CCC(N2CCCC2)CC1 | 400 | 250 | 90 |  |  |  |  |  |  |  |  |  | 
3 | O=C(c1ccc(Nc2nccc(-c3cc4ccccc4s3)n2)cc1)N1CCC(N2CCCC2)CC1 | 200 | 70 | 40 | 500 | 86 | 300 | 300 | 75 | 2000 | 300 | 2000 | 50 | 1000
4 | O=C(c1ccc(Nc2nccc(-c3ccc(CCCCO)s3)n2)cc1)N1CCC(N2CCCC2)CC1 | 500 | 40 | 25 | 200 |  | 200 | 200 |  | 5000 |  | 2500 |  | 2000
5 | O=C(O)c1cccc(Nc2nccc(-c3cc4ccccc4s3)n2)c1 |  |  | 1000 |  |  |  |  |  |  |  |  |  | 
6 | CN(C)C1CCN(C(=O)c2ccc(Nc3nccc(-c4cc5ccccc5s4)n3)cc2)CC1 | 150 | 80 | 40 | 300 |  | 400 | 400 |  | 2000 |  | 2000 |  | 2000
7 | COCCCc1ccc(-c2ccnc(Nc3ccc(C(=O)N4CCC(N5CCCC5)CC4)cc3)n2)s1 | 1000 | 100 | 100 | 400 |  | 600 | 500 |  | 5000 |  | 2000 |  | 1000
8 | CN(C)CCNC(=O)c1ccc(Nc2nccc(-c3cc4ccccc4s3)n2)cc1 | 1200 | 300 | 200 | 500 |  | 500 | 500 |  | 2000 |  |  |  | 5000
9 | O=C(O)Cc1ccc(Nc2nccc(-c3cc4ccccc4s3)n2)cc1 |  |  | 2200 |  |  |  |  |  |  |  |  |  | 
10 | CC(C)CCNC(=O)c1ccc(Nc2nccc(-c3cc4ccccc4s3)n2)cc1 |  |  | > 100000 |  |  |  |  |  |  |  |  |  | 
11 | O=C(O)c1ccc(Nc2nccc(-c3cc4ccccc4s3)n2)cc1 | 5000 | 18000 | 600 | 50000 |  | 50000 | 50000 |  | 100000 |  | 100000 |  | 100000
12 | NCCNC(=O)c1ccc(Nc2nccc(-c3cc4ccccc4s3)n2)cc1 | 3700 | 4400 | 600 |  |  |  |  |  |  |  |  |  | 
13 | CC(C)(O)CCc1ccc(-c2ccnc(Nc3ccc(C(=O)N4CCC(N5CCCC5)CC4)cc3)n2)s1 | 700 | 50 | 50 | 450 |  | 500 | 600 |  | 5000 |  | 3000 |  | 2000
14 | O=C(NCCN1CCCC1)c1ccc(Nc2nccc(-c3cc4ccccc4s3)n2)cc1 | 1200 | 500 | 400 |  |  |  |  |  |  |  |  |  | 
15 | CC(=O)NC(C)(C)CCc1ccc(-c2ccnc(Nc3ccc(C(=O)N4CCC(N5CCCC5)CC4)cc3)n2)s1 | 30000 | 800 | 150 |  |  |  |  |  |  |  |  |  | 
16 | O=C(O)c1ccccc1Nc1nccc(-c2cc3ccccc3s2)n1 | > 100000 | > 100000 | > 100000 |  |  |  |  |  |  |  |  |  | 
17 | COc1cc(Nc2nccc(-c3cc4ccccc4s3)n2)ccc1C(=O)N1CCC(N2CCCC2)CC1 | 100 | 150 | 50 |  |  |  |  |  |  |  |  |  | 
18 | CC(C)(N)C#Cc1ccc(-c2ccnc(Nc3ccc(C(=O)N4CCC(N5CCCC5)CC4)cc3)n2)s1 | 500 | 200 | 150 |  |  |  |  |  |  |  |  |  | 
19 | O=C(c1ccc(Nc2nccc(-c3cc4ccccc4s3)n2)cc1)N1CCCC1 | 3800 | 8500 | 900 | 2000 |  | 2000 | 2000 |  | 10000 |  | 250 |  | 20000
20 | CCC(N)(CC)CCc1ccc(-c2ccnc(Nc3ccc(C(=O)N4CCC(N5CCCC5)CC4)cc3)n2)s1 | 30 | 30 | 60 |  |  |  |  |  |  |  |  |  | 
